In patent publication US11268064B2, “Lactobacillus rhamnosus RHT-3201 conjugated to polysaccharide polymer binder, and use thereof for prevention or treatment of atopic diseases” (IL DONG PHARMACEUTICAL CO., LTD., priority 2014, dated 2022):

Experiments:
[1] = Body weight measurement during administration; format: in vivo, NC/Nga mice; details: administration during eight weeks; dexamethasone transdermal, RHT-3201 oral (FIG. 9)
Protocol: The dexamethasone was prepared by being dissolved in ethanol into a concentration of 0.1% (w/v), and RHT-3201 of the present invention was prepared by being dissolved in distilled water to doses of 1×10^8 CFU/0.5 ml/mouse, 1×10^9 CFU/0.5 ml/mouse, and 1×10^10 CFU/0.5 ml/mouse, respectively. All the samples to be administered were prepared on the testing day. The dexamethasone was coated on the skin of a testing subject at 100 μl for each subject twice a week, while RHT-3201 according to the present invention was orally administered at 0.5 ml for each subject using a mouse zonde once a day. Distilled water was administered for a normal group and an atopy control group. The administration was conducted for 8 weeks in all the test groups.
The number of scratching behaviors for 15 minutes was counted once a week from week 1 of administration of a test drug. Only the number of scratching behaviors using a hind leg was counted in order to avoid counting scratching behaviors due to the other causes besides scratching behaviors due to pruritus. Meanwhile, the weight loss tends to occur due to side effects of drugs and stress at the time of inducing severe atopic dermatitis. In order to investigate whether the side effect of weight loss occurs by the test materials of the present invention, the test animals were weighed during the administration period of the test materials.

[2] = tested on: severe atopic dermatitis-induced NC/Nga mice; experiment: Severe atopic dermatitis model, SCORAD evaluation; format: in vivo; details: baseline, before treatment with test materials; positive control group
Protocol: RHT-3201 according to the present invention was used as a test material, while steroid-based dexamethasone (Sigma Co. Ltd), which is used as a main therapeutic agent for severe atopic dermatitis, was used as a positive control. An extract of Dermatophagoides farina, which is a major species of house dust mite, was used as an atopy inducing material. The extract was purchased in an ointment form from Central Lab. Animal Inc.
The dexamethasone was prepared by being dissolved in ethanol into a concentration of 0.1% (w/v), and RHT-3201 of the present invention was prepared by being dissolved in distilled water to doses of 1×10^8 CFU/0.5 ml/mouse, 1×10^9 CFU/0.5 ml/mouse, and 1×10^10 CFU/0.5 ml/mouse, respectively. […]
In the present evaluation, the severity of atopic dermatitis was expressed as a total of evaluation scores of five items, using SCORAD (SCORing Atopic Dermatitis), which is a generally used method for clinical macroscopic evaluation. […] The scores for the five items (no symptom (score 0), mild symptom (score 1), moderate symptom (score 2), severe symptom (score 3) for each item) were added up, while the evaluation score was determined between the lowest score of 0 (a state in which there is no symptom) and the highest score of 15 (a state in which the symptoms for all items were severe). The severity of the mouse skin lesions was evaluated every week (see FIG. 6). […]

C[C@@H]1C[C@H]2[C@@H]3CCC4=CC(=O)C=C[C@]4(C)[C@@]3(F)[C@@H](O)C[C@]2(C)[C@@]1(O)C(=O)CO [Dexamethasone, dexamethasone]
change in body weight [1]: weight loss for 4 weeks | Severe atopic dermatitis score Mean ± SE (n = 6) [2]: 10.8 ± 0.4
